{"source": "patent US20100227356A1", "about": "“METHODS FOR ASSESSING EFFECTS ON SKELETAL GROWTH” (priority 2008, published 2010)", "tested_on": "neonatal limb culture", "experiment": "X-ray imaging of neonatal mouse hind limb organ culture (effect of bisphosphonates on bone density)", "assay_type": "cell-based, Swiss albino mouse", "conditions": "1 mM pamidronate in culture medium (well A) vs control (well B); neonatal limb in culture for 40 hours; FIG. 3", "text": "The method of the invention may be used to monitor the dynamic growth of an articulated skeletal […] by capturing a series of images overtime. In this example, an articulated lower portion (hind limb) of a limb of a neonatal, day-old Swiss albino mouse was removed and cultured in a well plate. The limb was scraped with a scalpel to abrade any skin and flesh sufficiently to allow an organ culture medium to reach the skeletal members. The scraped limb was superficially embedded in 1% agarose. The medium used for culture was 4 ml of minimum essential medium (Delbecco's Modified Eagle Medium), supplemented with 1 mM β glycerophosphate, ascorbic acid, 0.2% bovine serum albumin and antibiotics. The antibiotics contained 100 units/ml penicillin, and 100 μg/ml streptomycin. The skeletal members of the limbs continued to grow within the cultures and were imaged with X-rays (Time-Lapse-3 hrs; 11 to […] using a multi-modal system as previously described). Bone growth and mineral deposition could be measured, as could X-ray and column densities. Because the limb was articulated, the growth of individual skeletal members was influenced by neighboring members, just as in the case of growth in a living animal. The analytical X-ray imaging methodology according to the invention allows measurement of the growth of skeletal members of a neonatal mouse limb grown in vitro in organ culture. […]"}
{"compound": "NCCC(O)(P(=O)(O)O)P(=O)(O)O", "note": "[pamidronate, Pamidronate]", "values": [{"measurement": "bone density and size versus control (X-ray images)", "value": "differences in bone density and size are observable"}]}
